From US20170159129A1, “METHODS FOR DETECTING TELOMERE MAINTENANCE MECHANISMS” (priority 2015, published 2017)

Test system: ALT+ cell lines U2OS, Saos-2 and G-292
Test: Flow-FISH G to C ratio assay for inhibition of ALT activity in ALT+ cell lines
Assay type: cell-based
Settings: ALT+ cell lines incubated with 3 mM HU for 48 hours; untreated ALT+ lines above 0.8; ratio below 0.8 indicates a decrease in ALT activity
Text: The present disclosure is directed to a novel improvement of flow-FISH that has been adapted for quantifying ALT activity in a cell. Briefly, cells to be analyzed are first mixed with an internal standard for telomeric DNA content. In one embodiment, the 1301 cell line, a T-cell leukemia cell line with long homogeneous telomeres is used. In other embodiments, flow cytometry microbeads with telomeric oligonucleotides can also be used to provide a standard. […] In some embodiments, the labels have the same fluorescence and stability characteristics (e.g. FITC). In other embodiments, the labels for the two probes may be different and have different fluorescence and stability characteristics. […] After incubation, cells are washed in flow cytometry staining buffer and then analyzed by flow cytometry.
Relative C-strand content and relative G-strand content of the sample cells is determined, and a ratio of G content to C content calculated. First, the mean fluorescence of the probes is measured for both sample cells and standard. […] The fluorescent marker in the standard allows for identification of the internal standard and separation of its Tel G and Tel C probe fluorescence. […]

NC(=O)NO [hydroxyurea]
G to C ratio (relative telomeric G content to C content, relative to 1301 cell standard): below 0.8
